Holding throughout (assay type): biochemical
In one experiment the target is βPGM from L. lactis (Lactococcus lactis subsp. lactis, UniProt P71447). As to the kind of experiment: IC50 determination of βPGM.
For experiment [1], the target named is T1, αPMM/PGM from P. aeruginosa (Pseudomonas aeruginosa, UniProt P26276).
T1 sequence (P26276 1-463): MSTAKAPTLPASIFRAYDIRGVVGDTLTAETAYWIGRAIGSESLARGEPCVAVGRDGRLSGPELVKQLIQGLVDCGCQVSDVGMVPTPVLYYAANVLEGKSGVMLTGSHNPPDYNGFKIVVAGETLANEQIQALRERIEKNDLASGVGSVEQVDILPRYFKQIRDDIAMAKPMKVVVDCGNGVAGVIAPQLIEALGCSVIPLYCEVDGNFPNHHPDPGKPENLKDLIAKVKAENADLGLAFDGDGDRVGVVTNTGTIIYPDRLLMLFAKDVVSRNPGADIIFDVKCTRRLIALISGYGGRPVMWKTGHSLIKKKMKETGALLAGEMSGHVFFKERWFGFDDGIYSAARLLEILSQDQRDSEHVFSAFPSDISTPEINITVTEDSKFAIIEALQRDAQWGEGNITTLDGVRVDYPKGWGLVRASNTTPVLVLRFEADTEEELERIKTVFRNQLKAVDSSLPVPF
The experiment is described as follows: IC50 determination of αPMM/PGM.

The next experiment deals with T2, αPMM/PGM (Pseudomonas aeruginosa, UniProt P26276).
T2 sequence (P26276 1-463): T1 sequence (P26276 1-463)
The experiment is described as follows: Michaelis Menten kinetics of αPMM/PGM. The settings on record: read-out: Km(αG1P), variable αG1P 0–200 µM.

The IC50 is the midpoint of a concentration-inhibition curve. In general, Ki refers to the equilibrium dissociation constant of an inhibitor or competing ligand from its target. Low values mean tighter binding, high ones weaker binding. As to `O=P(O)(O)OC[C@H]1O[C@@](O)(C(F)F)[C@H](O)[C@@H](O)[C@@H]1O` [compound 3, 1-Deoxy-1,1-difluoro-α-D-gluco-heptulose 7-Phosphate], the IC50 is 214 ± 11 µM against βPGM from L. lactis and 288 ± 37 µM in experiment [1]. In addition, the Ki came to 107 ± 6 µM on βPGM from L. lactis and 144 ± 18 µM in experiment [1].

Broadly, the Km is the substrate concentration at which the rate is half of its maximum. As for `O=P(O)(O)O[C@H]1O[C@H](CO)[C@@H](O)[C@H](O)[C@H]1O` [αG1P, glucose 1-phosphate], the Km on αPMM/PGM came to 20 µM.

As for `O=P(O)(O)OC[C@H]1O[C@@](O)(CF)[C@H](O)[C@@H](O)[C@@H]1O` [compound 2, 1-Deoxy-1-monofluoro-α-D-gluco-heptulose 7-Phosphate], at βPGM from L. lactis, the IC50 turned out to be 183 ± 14 µM and the Ki was found to be 92 ± 7 µM. In experiment [1], this molecule yielded an IC50 of 234 ± 29 µM and a Ki of 117 ± 14 µM.

Turning to `C[C@]1(O)O[C@H](COP(=O)(O)O)[C@@H](O)[C@H](O)[C@H]1O` [compound 1, 1-Deoxy-α-D-gluco-heptulose 7-Phosphate], the results for the IC50 (on βPGM from L. lactis; in experiment [1]) were 113 ± 3 µM and 131 ± 1 µM, respectively. The Ki at βPGM from L. lactis amounted to 57 ± 2 µM; in experiment [1] it was 65 ± 0.5 µM.

Source of the values: publication PMC6547622 (ACS Omega, 2019).
